Source: US20260048047A1, “SMALL-MOLECULE ACTIVATORS OF MYCOBACTERIUM TUBERCULOSIS ADENYLYL CYCLASE” (priority 2022, published 2026)
In brackets after ≈: the same amount, converted by molar mass. Entries after “also recorded” stand apart in the source; their conditions may differ. Like-named read-outs stand apart in the source and are kept apart here.

What was measured:
Mtb [1] = test: Mtb growth inhibition in standard rich growth media (7H9 OADC) or acetate media; type: cell-based, Mycobacterium tuberculosis; details: media containing acetate
Rv1625c = target: T1, Rv1625c (Mycobacterium tuberculosis, UniProt P9WQ35); type: cell-based
T1 construct: endogenous in cells; host or cells: whole Mycobacterium tuberculosis (WT; CompFull = ΔRv1625c complemented with the entire rv1625c gene)
T1 sequence (P9WQ35 1-443): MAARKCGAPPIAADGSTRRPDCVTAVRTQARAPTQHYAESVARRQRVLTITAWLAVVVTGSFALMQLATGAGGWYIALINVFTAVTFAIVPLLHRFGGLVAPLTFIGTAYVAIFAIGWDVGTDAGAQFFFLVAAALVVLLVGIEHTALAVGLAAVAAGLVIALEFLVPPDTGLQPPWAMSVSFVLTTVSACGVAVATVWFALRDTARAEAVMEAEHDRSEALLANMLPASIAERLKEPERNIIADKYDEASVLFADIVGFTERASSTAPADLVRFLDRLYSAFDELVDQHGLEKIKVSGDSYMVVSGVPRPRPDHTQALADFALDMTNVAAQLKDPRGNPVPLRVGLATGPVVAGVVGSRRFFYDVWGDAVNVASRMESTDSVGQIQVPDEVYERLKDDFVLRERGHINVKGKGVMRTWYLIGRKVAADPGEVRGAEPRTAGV

Mtb [2] = type: in vivo, BALB/c mice; details: for Reduction in lung CFUs: mouse, in vivo
Mtb in macrophages = test: Inhibition of Mtb replication in macrophages (intramacrophage EC50); type: cell-based, Mycobacterium tuberculosis; details: Mycobacterium tuberculosis, Macrophage; read-out: EC50, inhibition of Mtb replication in macrophages
[3] = tested on: Mtb cholesterol degradation; test: Catabolic release of 14CO2 from radiolabelled lipid by Mtb; type: cell-based, Mycobacterium tuberculosis
Procedure: Because V-59 impairs growth of Mtb in cholesterol media, whether using V-59 to chemically activate Rv1625c inhibits the bacterium's ability to break down cholesterol was tested. When Mtb degrades the A-ring of [4-^14C]-cholesterol, [1-^14C]-pyruvate is released; subsequently, pyruvate dehydrogenase activity mediates the conversion of [1-^14C]-pyruvate into acetyl-CoA and ^14CO2. Therefore, to quantify cholesterol degradation in Mtb, ^14CO2 released following [4-^14C]-cholesterol breakdown by the bacteria was captured.

[4] = Plasma exposure over the cholesterol-media EC50 after oral dosing in mice; type: in vivo
M. tuberculosis = test: Extracellular activity against M. tuberculosis in cholesterol media (Alamar Blue reduction assay); type: cell-based, Mycobacterium tuberculosis; details: Mycobacterium tuberculosis; read-out: EC50, inhibition of Mtb growth in cholesterol media
prpD'::GFP reporter = type: cell-based, Mycobacterium tuberculosis; details: V-59 10 μM
Mtb [5] = test: Chronic Mtb infection in C3HeB/FeJ mice; type: in vivo; details: infected and treated in the same manner
mammalian AC enzymes = details: human cell lines, 10 μM
Extraction ratio, human = details: Table S2
Solubility at pH 6.8 = details: pH 6.8, aqueous buffer
Extraction ratio, mouse = details: Table S2
hERG = hERG (Homo sapiens, UniProt Q12809); test: in vitro; type: biochemical; details: Table S2
[6] = Mouse plasma protein binding
Mtb H37Ra = details: read-out: IC50 against Mtb H37Ra in cholesterol media
[7] = tested on: Mtb H37Rv (Mtb-lux) inside PMA-differentiated THP-1 cells; test: Intramacrophage activity in THP-1 cells; type: cell-based, Mycobacterium tuberculosis
Mtb H37Rv = test: MIC determination in Mtb H37Rv (MABA, 7H12-Cholesterol media); type: cell-based; details: Mycobacterium tuberculosis, two batches
Procedure: MIC Determination in Mtb H37Rv
The minimum inhibitory concentration (MIC) of the test compounds were determined using ten-point, two-fold serial dilutions in 7H12-Cholesterol media using Microdilution Alamar Blue Assay (MABA) as previously described (Cho et al., 2015; VanderVen et al., 2015). Briefly, Mycobacterial cells at the mid-logarithmic phase of growth were diluted (1:1,000). Twenty μl of this dilution was added to each well containing 2-fold serially diluted test compounds and incubated for 7 days at 37° C. Alamar Blue (Invitrogen) reagent (4 μL per well) was added along with 20% Tween 80 (2.5 μL per well, Sigma Aldrich) to evaluate bacterial cell viability. Plates were read 24 h after adding Alamar Blue at absorbance 570 nm with a reference wavelength of 600 nm.

[8] = tested on: Mtb inside J774.1 macrophages; test: Intramacrophage activity in J774.1 cells; type: cell-based, Mycobacterium tuberculosis
[9] = tested on: non-replicating M. tuberculosis; test: Hu Coats 100-day old culture model; details: for Cidal activity compared to the NixTB combination: with Pretomanid and Bedaquiline
Mtb [10] = test: Checkerboard combination assay with known anti-TB drugs (FIC index); type: cell-based, Mycobacterium tuberculosis; details: nine anti-TB drugs
Source text: Combination Testing of mCLB073 with Known Anti-TB Drugs
To test for interactions between mCLB073 and known anti-tubercular drugs in combination in an in vitro growth assay, a checkerboard assay to test for interactions between mCLB073 and drugs with known anti-TB activity using Alamar Blue as a viability marker (Lechartier et al., 2012) was used. Drug combinations were categorized based on fractional inhibitory concentration (FIC) index of FIC≤0.5 as synergistic, 0.5<FIC≤1 as additive, 1<FIC≤4 as no interaction and FIC ≥4 as antagonism (Hall et al., 1983).
Performed were synergy studies between mCLB073 and nine anti-TB drugs: Moxifloxacin (MOXI), Isoniazid (INH), Rifampicin (RIF), Streptomycin (STR), Levofloxacin (LEV), Linezolid (LIN), Ethionamide (ETH), Pretomanid (PA-824), and Bedaquiline (BDQ). A checkerboard titration in a microtiter plate was used as previously described (Hsieh et al., 1993).

hERG, sequence (Q12809 whole entry): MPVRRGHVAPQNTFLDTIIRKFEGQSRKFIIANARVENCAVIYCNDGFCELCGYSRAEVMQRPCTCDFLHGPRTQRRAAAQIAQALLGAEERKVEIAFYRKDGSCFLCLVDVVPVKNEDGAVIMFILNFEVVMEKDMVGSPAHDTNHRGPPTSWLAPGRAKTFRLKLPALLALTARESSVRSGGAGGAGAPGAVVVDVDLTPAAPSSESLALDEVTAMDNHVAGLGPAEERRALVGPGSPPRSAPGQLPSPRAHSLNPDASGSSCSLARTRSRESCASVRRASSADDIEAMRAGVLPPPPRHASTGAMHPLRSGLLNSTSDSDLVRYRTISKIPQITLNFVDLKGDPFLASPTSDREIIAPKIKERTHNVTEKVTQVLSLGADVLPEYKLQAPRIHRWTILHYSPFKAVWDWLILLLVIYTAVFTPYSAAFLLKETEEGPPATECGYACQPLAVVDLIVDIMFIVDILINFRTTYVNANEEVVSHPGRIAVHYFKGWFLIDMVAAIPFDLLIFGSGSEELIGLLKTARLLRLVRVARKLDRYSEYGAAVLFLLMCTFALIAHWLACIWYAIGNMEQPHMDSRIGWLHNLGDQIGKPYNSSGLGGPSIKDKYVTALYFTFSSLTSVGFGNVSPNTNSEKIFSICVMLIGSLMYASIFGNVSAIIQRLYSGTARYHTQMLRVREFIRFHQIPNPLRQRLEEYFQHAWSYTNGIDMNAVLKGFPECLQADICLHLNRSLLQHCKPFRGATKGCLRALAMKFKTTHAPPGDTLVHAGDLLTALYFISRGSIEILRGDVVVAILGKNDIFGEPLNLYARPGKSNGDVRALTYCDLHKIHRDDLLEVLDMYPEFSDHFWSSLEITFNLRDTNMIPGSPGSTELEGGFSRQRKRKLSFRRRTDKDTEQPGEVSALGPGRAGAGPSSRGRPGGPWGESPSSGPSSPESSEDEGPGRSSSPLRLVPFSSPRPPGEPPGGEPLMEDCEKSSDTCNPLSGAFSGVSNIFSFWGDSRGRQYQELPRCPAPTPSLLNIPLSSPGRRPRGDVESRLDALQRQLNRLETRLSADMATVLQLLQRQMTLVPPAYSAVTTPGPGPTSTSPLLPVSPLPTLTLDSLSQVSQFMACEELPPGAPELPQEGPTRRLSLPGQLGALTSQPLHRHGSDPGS

SMILES: Cc1nonc1CC(=O)N1CCC(n2nnc(-c3ccc(F)cc3)n2)CC1 [Compound V-59, 1-(4-(5-(4-fluorophenyl)-2H-tetrazol-2-yl)piperidin-1-yl)-2-(4-methyl-1,2,5-oxadiazol-3-yl)ethan-1-one]
- Inhibition of Mtb growth in acetate media or standard rich growth media (Mtb [1]): not
- cAMP induction in WT Mtb (Rv1625c): ~70 fold
- cAMP induction in CompFull Mtb (Rv1625c; CompFull strain): ~140 fold
- Reduction of extent of lung inflammation (Mtb [2]; BALB/c, 50 mg/kg oral once-daily, weeks 4-8): ~50%
- Reduction in lung CFUs (Mtb [2]; po, 50 mg/kg): ~0.4 log10
- EC50 (Mtb in macrophages): 300 nM
- Decrease of 14CO2 release from [4-14C]-cholesterol ([3]; WT Mtb): ~89%
- Effect on 14CO2 release from [U-14C]-palmitate ([3]; fatty acid breakdown): no measurable effect
- Plasma exposure above the EC50 (cholesterol media) ([4]; oral dosing in mice at 20 mg/kg): approximately 24 hours
- EC50 (M. tuberculosis): 700 nM
- Decrease of prpD'::GFP signal in CompFull (prpD'::GFP reporter; CompFull strain): ~90%
- Decrease of prpD'::GFP signal in WT (prpD'::GFP reporter; WT): ~50%
- Reduction in lung CFUs (Mtb [5]): ~0.5 log10
- Activation of ACs in mammalian cells (mammalian AC enzymes): No evidence

SMILES: Cn1ncnc1CC(=O)N1[C@@H]2CC(c3nc(-c4ccc(Cl)c(Cl)c4)no3)C[C@H]1C2 (stereo partly shown) [drawing 4]
- ER mouse/human: human (Extraction ratio, human): <0.3/<0.3
- solubility (Solubility at pH 6.8): 94 µM (≈ 40.7 µg/mL)
- ER mouse/human: mouse (Extraction ratio, mouse): <0.3/<0.3
- IC50 (hERG): 11800 nM
- fraction unbound (Caseum binding): < 0.0001
- fraction unbound [6]: 0.022

SMILES: Cn1ncnc1CC(=O)N1CCC(c2nc(-c3ccc(Cl)c(Cl)c3)no2)CC1 [mCLB073, 1-(4-(3-(3,4-dichlorophenyl)-1,2,4-oxadiazol-5-yl)-1-piperidinyl)-2-(2-methyl-2H-1,2,4-triazol-3-yl)-1-ethanone]
- IC50 (Mtb H37Ra): 30.1 nM
- Sinf (maximum inhibition), THP-1 [7]: 76.8%
- EC50 ([7]; Mycobacterium tuberculosis, H37RV, THP-1, 72 h, luminescence, day 3, read-out: EC50, growth of Mtb inside PMA-differentiated THP-1 cells): 40 nM
- Decrease of extent of lung pathology (Mtb [2]; BALB/c, 30 mg/kg oral once-daily, weeks 4-8): ~45%
- Lung bacterial burden when added to sub-optimal rifampicin (Mtb [2]; BALB/c, 30 mg/kg plus sub-optimal dose of rifampicin): did not increase the bacterial burden
- Reduction in lung CFUs (Mtb [2]; 5 mg/kg): ~0.4 log10
- Reduction in lung CFUs (Mtb [2]; po, 30 mg/kg): ~0.4 log10
- MIC90 (Mtb H37Rv): 0.28 µM (≈ 0.118 µg/mL)
- Plasma exposure over the EC50 identified in cholesterol media ([4]; dosed orally in mice): at least 24 hours
- Sinf (maximum inhibition), J774.1 [8]: 42.1%
- EC50 ([8]; Mycobacterium tuberculosis, J774.1, 72 h, luminescence, day 3, read-out: EC50, growth of Mtb inside J774.1 macrophages): 50 nM
- Efficacy when tested individually ([9]; 100-day-old culture, alone): no efficacy
- Activity in combination versus NixTB combination ([9]; Pretomanid 20.87 μM, Bedaquiline 2.25 μM, test drug 20, 8, 1 μM): comparable
- CFU reduction versus PB ([9]; added to PB, 50 μM): superior CFU reduction
- Cidal activity compared to the NixTB combination ([9]; 50 μM): complete sterilization; also recorded: two log units better
- Cidal activity compared to the NixTB combination ([9]; all compounds at 20 μM): one-log improvement
- Antagonism with known anti-TB drugs (Mtb [10]): did not display any antagonism
